Where only a bound is given, the exact number is not on record here.

The test deals with mTOR/GbL/Raptor (mTORC1) (Homo sapiens, UniProt P42345). Nature of the test: mTOR/GbL/Raptor (mTORC1) ELISA assay. The class given is biochemical. To be noted: phosphorylation of 4E-BP1; 0.2 nM mTORC1, 10 μM ATP; read-out: IC50 in this assay (mTORC1 ELISA). Summed up: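 ELISA read-out: phospho-4E-BP1 captured on Ni-chelate plates and detected with anti-phospho antibody plus HRP-anti-IgG luminescence. The kinase step ran 120 min at ambient temperature with 0.2 nM human mTORC1, 10 µM ATP, 50 nM His-4E-BP1, 10 mM MnCl2, pH 7.2 HEPES.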
In the case of `CC1(C)CCc2ncnc(N3CCOc4ccc(-c5cnc(N)c(S(=O)(=O)NCC(N)=O)c5)cc4C3)c2C1` [Example 636, N~2~-({2-amino-5-[4-(6,6-dimethyl-5,6,7,8-tetrahydroquinazolin-4-yl)-2,3,4,5-tetrahydro-1,4-benzoxazepin-7-yl]pyridin-3-yl}sulfonyl)glycinamide], the 50% inhibitory concentration (IC50) was in the range of 10 to 50 nM.
In the case of `CCNc1nc(C)nc(N2CCOc3ccc(-c4cnc5nc(C)[nH]c5c4)cc3C2)c1C` [Example 637, N-ethyl-2,5-dimethyl-6-[7-(2-methyl-1H-imidazo[4,5-b]pyridin-6-yl)-2,3-dihydro-1,4-benzoxazepin-4(5H)-yl]pyrimidin-4-amine], the half-inhibitory concentration (IC50) fell in the range of 250 to 1000 nM.
Regarding `CCNc1ncnc(N2CCOc3ccc(-c4cnc5nc(C)[nH]c5c4)cc3C2)c1C` [Example 639, N-ethyl-5-methyl-6-[7-(2-methyl-1H-imidazo[4,5-b]pyridin-6-yl)-2,3-dihydro-1,4-benzoxazepin-4(5H)-yl]pyrimidin-4-amine], the IC50 lay within 250 to 1000 nM.
Then `CCNc1nc2ccc(-c3ccc4c(c3)CN(c3ncnc(Nc5ccc(OC)cc5)c3C)CCO4)cc2[nH]1` [Example 640, N-ethyl-6-[4-(5-methyl-6-{[4-(methyloxy)phenyl]amino}pyrimidin-4-yl)-2,3,4,5-tetrahydro-1,4-benzoxazepin-7-yl]-1H-benzimidazol-2-amine], with 250 to 1000 nM; and `CCNc1nc2ncc(-c3ccc4c(c3)CN(c3nc(C)nc5cc(OC)ccc35)CCO4)cc2[nH]1` [Example 642, N-ethyl-6-{4-[2-methyl-7-(methyloxy)quinazolin-4-yl]-2,3,4,5-tetrahydro-1,4-benzoxazepin-7-yl}-1H-imidazo[4,5-b]pyridin-2-amine], with 10 to 50 nM.
The result for `CCNc1nc2ccc(-c3ccc4c(c3)CN(c3ncnc(NCC)c3C)CCO4)cc2[nH]1` [Example 643, N-ethyl-6-{4-[6-(ethylamino)-5-methylpyrimidin-4-yl]-2,3,4,5-tetrahydro-1,4-benzoxazepin-7-yl}-1H-benzimidazol-2-amine] reads 250 to 1000 nM; that for `COCCOc1cc(-c2ccc3c(c2)CN(c2nc(CN(C)C)nc4c2CC(C)(C)CC4)CCO3)ccc1OC` [Example 648, 1-(6,6-dimethyl-4-{7-[4-(methyloxy)-3-{[2-(methyloxy)ethyl]oxy}phenyl]-2,3-dihydro-1,4-benzoxazepin-4(5H)-yl}-5,6,7,8-tetrahydroquinazolin-2-yl)-N,N-dimethylmethanamine], 250 to 1000 nM; that for `COc1ccc(-c2ccc3c(c2)CN(c2nc(CN(C)C)nc4c2CC(C)(C)CC4)CCO3)cc1OC(F)F` [Example 649, 1-{4-[7-{3-[(difluoromethyl)oxy]-4-(methyloxy)phenyl}-2,3-dihydro-1,4-benzoxazepin-4(5H)-yl]-6,6-dimethyl-5,6,7,8-tetrahydroquinazolin-2-yl}-N,N-dimethylmethanamine], 250 to 1000 nM.
Then `COc1ccc(-c2ccc3c(c2)CN(c2nc(CN(C)C)nc4c2CC(C)(C)CC4)CCO3)cc1C(C)=O` [Example 650, 1-[5-(4-{2-[(dimethylamino)methyl]-6,6-dimethyl-5,6,7,8-tetrahydroquinazolin-4-yl}-2,3,4,5-tetrahydro-1,4-benzoxazepin-7-yl)-2-(methyloxy)phenyl]ethanone], with 50 to 250 nM; and `Cc1nc(N)nc(N2CCOc3ccc(-c4ccc5[nH]cnc5c4)cc3C2)c1Cc1ccc(F)cc1` [Example 651, 4-[7-(1H-benzimidazol-5-yl)-2,3-dihydro-1,4-benzoxazepin-4(5H)-yl]-5-[(4-fluorophenyl)methyl]-6-methylpyrimidin-2-amine], with not above 10 nM; and `COc1ccc(-c2ccc3c(c2)CN(c2nc(CN(C)C)nc4c2CC(C)(C)CC4)CCO3)cc1S(C)(=O)=O` [Example 652, 1-(6,6-dimethyl-4-{7-[4-(methyloxy)-3-(methylsulfonyl)phenyl]-2,3-dihydro-1,4-benzoxazepin-4(5H)-yl}-5,6,7,8-tetrahydroquinazolin-2-yl)-N,N-dimethylmethanamine], with 250 to 1000 nM.

These data come from patent publication US8648066B2 (Exelixis, Inc., priority 2009, dated 2014).
